Source: US6875451B2, “Compositions and methods for the treatment of primary and metastatic neoplastic diseases using arsenic compounds” (PolaRx Biopharmaceuticals Inc., priority 1997, dated 2005)

Legend:
Format in all cases: cell-based
NCI-H460 = assay: SRB growth assay, 2 days exposure, non-small cell lung cancer
Experimental: (§1) Arsenic trioxide (1 mg/ml, 10 mg/ampoule, manufactured by Taylor Pharmaceuticals, Decatur, Ill.) was tested at five concentrations each at 10-fold dilutions, i.e., 10^−5, 10^−6, 10^−7, 10^−8 and 10^−9 μg/ml.
(§2) The in vitro tests were performed by incubating the test cells in the presence of the indicated concentration of arsenic trioxide under standard culture conditions for a designated period of time, which is followed by a sulforhodamine B (SRB) protein assay to estimate cell viability or growth. The cell lines are organized into subpanels according to the origin of the cell lines, e.g., leukemia, breast cancer, etc. A description of the cell lines and method of testing is described in Monk et al. (1997, Anticancer Drug Des. 12:533-41) and Weinstein et al., (1997, Science 275:343-9), which are incorporated herein in their entirety.
(§3) The measurement of an effect is expressed in Percentage Growth (PG). The measured effect of the compound on a cell line is calculated according to one or the other of the following two expressions: If (Mean ODtest−Mean ODzero)≧0. then PG=100×(Mean ODtest−Mean ODzero)/(Mean ODctrl−Mean ODzero) If (Mean ODtest−Mean ODzero)<0. then PG=100×(Mean ODtest−Mean ODzero)/(Mean ODzero where: • Mean ODzero=the average of optical density measurements of SRB-derived color just before exposure of cells to the test compounds; • Mean ODtest=the average of optical density measurements of SRB-derived color after exposure of cells to the test compound for a designated period of time; and • Mean ODctrl=the average of optical density measurements of SRB-derived color after with no exposure of cells to the test compound for a designated period of time
(§4) The first two columns describe the subpanel (e.g., leukemia) and cell line (e.g., CCRF-CEM) involved. The next two columns list the Mean ODzero and Mean ODctrl; the next five columns list the Mean ODtest for each of five different concentrations. Each concentration is expressed as the log10 (molar or μg/ml). The next five columns list the calculated PGs for each concentration. The response parameters GI50, TGI and LC50 are interpolated values representing the concentrations at which the PG is +50, 0, and −50, respectively. Sometimes these response parameters cannot be obtained by interpolation. If, for instance, all of the PGs in a given row exceed +50, then none of the three parameters can be obtained by interpolation. In such a case, the value given for each response parameter is the highest concentration tested and is preceded by a “>” sign. This practice is extended similarly to the other possible situations where a response parameter cannot be obtained by interpolation.
(§5) In the first set, the cells from 56 different cancer cell lines were exposed to five concentrations of arsenic trioxide continuously for two days prior to performing the SRB assay. In the second set, the cells from 50 different cell lines (a subset of the first 56 cell lines, plus the renal cancer cell line 786-0) were exposed continuously for six days prior to the SRB assay.

NCI-8322M = assay: as above
Experimental: as §1, §2, §3, §4, §5

A498 = assay: SRB growth assay, 6 days exposure, renal cancer; conditions: A498, 6 days
Experimental: as §1, §2, §3, §4, §5

786-O = assay: SRB growth assay, 6 days exposure, renal cancer; conditions: 786-0, 6 days
Experimental: as §1, §2, §3, §4, §5

TK-10 = assay: SRB growth assay, 6 days exposure, renal cancer; conditions: TK-10, 6 days
Experimental: as §1, §2, §3, §4, §5

RPMI-8226 = assay: SRB growth assay, 6 days exposure, leukemia; conditions: RPMI-8226, 6 days
Experimental: as §1, §2, §3, §4, §5

MOLT-4 = assay: SRB growth assay, 6 days exposure, leukemia; conditions: MOLT-4, 6 days
Experimental: as §1, §2, §3, §4, §5

K-562 = assay: SRB growth assay, 6 days exposure, leukemia; conditions: K-562, 6 days
Experimental: as §1, §2, §3, §4, §5

CCRF-CEM = assay: SRB growth assay, 6 days exposure, leukemia
Experimental: as §1, §2, §3, §4, §5

[1] = read-out: LC50 (the source's name)

In the case of arsenic trioxide, the TGI (NCI-H460) was >0.0126 ng/mL, the “Percent Growth” value (NCI-H460; log10 conc −4.9) was 49% and the “Percent Growth” value (NCI-H460; log10 conc −5.9) was 92%. For the same substance, the “Percent Growth” value (NCI-H460; log10 conc −6.9) was 100%, the “Percent Growth” value (NCI-H460; log10 conc −7.9) was 95% and the “Percent Growth” value (NCI-H460; log10 conc −8.9) was 89%. For the same substance, the TGI (NCI-8322M) was >0.0126 ng/mL, the “Percent Growth” value (NCI-8322M; log10 conc −4.9) was 61% and the “Percent Growth” value (NCI-8322M; log10 conc −5.9) was 99%. The “Percent Growth” value (NCI-8322M; log10 conc −6.9) was 97%, the “Percent Growth” value (NCI-8322M; log10 conc −7.9) was 106% and the “Percent Growth” value (NCI-8322M; log10 conc −8.9) was 117%. For the same substance, the TGI (A498) was 4.85E−06, the “Mean Optical Densities” value (A498; Log 10 Concentration −4.9) was 0.025 and the “Percent Growth” value (A498; Log 10 Concentration −4.9) was −52%. For the same substance, the “Mean Optical Densities” value (A498; Log 10 Concentration −5.9) was 0.558, the “Percent Growth” value (A498; Log 10 Concentration −5.9) was 73% and the “Mean Optical Densities” value (A498; Log 10 Concentration −6.9) was 0.837. The “Percent Growth” value (A498; Log 10 Concentration −6.9) was 114%, the “Mean Optical Densities” value (A498; Log 10 Concentration −7.9) was 0.764 and the “Percent Growth” value (A498; Log 10 Concentration −7.9) was 103%. For the same substance, the “Mean Optical Densities” value (A498; Log 10 Concentration −8.9) was 0.826, the “Percent Growth” value (A498; Log 10 Concentration −8.9) was 112% and the TGI (786-O) was 2.77E−06. The “Mean Optical Densities” value (786-O; Log 10 Concentration −4.9) was −0.003, the “Percent Growth” value (786-O; Log 10 Concentration −4.9) was −100% and the “Mean Optical Densities” value (786-O; Log 10 Concentration −5.9) was 0.832. The “Percent Growth” value (786-O; Log 10 Concentration −5.9) was 52%, the “Mean Optical Densities” value (786-O; Log 10 Concentration −6.9) was 1.786 and the “Percent Growth” value (786-O; Log 10 Concentration −6.9) was 113%. For the same substance, the “Mean Optical Densities” value (786-O; Log 10 Concentration −7.9) was 1.821, the “Percent Growth” value (786-O; Log 10 Concentration −7.9) was 116% and the “Mean Optical Densities” value (786-O; Log 10 Concentration −8.9) was 1.582. The “Percent Growth” value (786-O; Log 10 Concentration −8.9) was 100%, the TGI (TK-10) was >1.26E−05 and the “Mean Optical Densities” value (TK-10; Log 10 Concentration −4.9) was 0.239. The “Percent Growth” value (TK-10; Log 10 Concentration −4.9) was 13%, the “Mean Optical Densities” value (TK-10; Log 10 Concentration −5.9) was 1.103 and the “Percent Growth” value (TK-10; Log 10 Concentration −5.9) was 82%. The “Mean Optical Densities” value (TK-10; Log 10 Concentration −6.9) was 1.334, the “Percent Growth” value (TK-10; Log 10 Concentration −6.9) was 100% and the “Mean Optical Densities” value (TK-10; Log 10 Concentration −7.9) was 1.268. The “Percent Growth” value (TK-10; Log 10 Concentration −7.9) was 95%, the “Mean Optical Densities” value (TK-10; Log 10 Concentration −8.9) was 1.356 and the “Percent Growth” value (TK-10; Log 10 Concentration −8.9) was 102%. The CC50 (TK-10; [1]) was > 12.6 µM, the “Mean Optical Densities” value (RPMI-8226; Log 10 Concentration −4.9) was 0.065 and the “Percent Growth” value (RPMI-8226; Log 10 Concentration −4.9) was −2%. The “Mean Optical Densities” value (RPMI-8226; Log 10 Concentration −5.9) was 0.368, the “Percent Growth” value (RPMI-8226; Log 10 Concentration −5.9) was 22% and the “Mean Optical Densities” value (RPMI-8226; Log 10 Concentration −6.9) was 1.423. The “Percent Growth” value (RPMI-8226; Log 10 Concentration −6.9) was 99%, the “Mean Optical Densities” value (RPMI-8226; Log 10 Concentration −7.9) was 1.263 and the “Percent Growth” value (RPMI-8226; Log 10 Concentration −7.9) was 88%. The “Mean Optical Densities” value (RPMI-8226; Log 10 Concentration −8.9) was 1.607, the “Percent Growth” value (RPMI-8226; Log 10 Concentration −8.9) was 113% and the CC50 (RPMI-8226; [1]) was > 12.6 µM. The TGI (MOLT-4) was >1.26E−05, the “Mean Optical Densities” value (MOLT-4; Log 10 Concentration −4.9) was 0.113 and the “Percent Growth” value (MOLT-4; Log 10 Concentration −4.9) was 20%. The “Mean Optical Densities” value (MOLT-4; Log 10 Concentration −5.9) was 0.245, the “Percent Growth” value (MOLT-4; Log 10 Concentration −5.9) was 47% and the “Mean Optical Densities” value (MOLT-4; Log 10 Concentration −6.9) was 0.432. The “Percent Growth” value (MOLT-4; Log 10 Concentration −6.9) was 85%, the “Mean Optical Densities” value (MOLT-4; Log 10 Concentration −7.9) was 0.228 and the “Percent Growth” value (MOLT-4; Log 10 Concentration −7.9) was 43%. The “Mean Optical Densities” value (MOLT-4; Log 10 Concentration −8.9) was 0.554, the “Percent Growth” value (MOLT-4; Log 10 Concentration −8.9) was 111% and the TGI (K-562) was >1.26E−05. The “Mean Optical Densities” value (K-562; Log 10 Concentration −4.9) was 0.096, the “Percent Growth” value (K-562; Log 10 Concentration −4.9) was 2% and the “Mean Optical Densities” value (K-562; Log 10 Concentration −5.9) was 2.931. The “Percent Growth” value (K-562; Log 10 Concentration −5.9) was 97%, the “Mean Optical Densities” value (K-562; Log 10 Concentration −6.9) was 3.360 and the “Percent Growth” value (K-562; Log 10 Concentration −6.9) was 112%. The “Mean Optical Densities” value (K-562; Log 10 Concentration −7.9) was 2.992, the “Percent Growth” value (K-562; Log 10 Concentration −7.9) was 99% and the “Mean Optical Densities” value (K-562; Log 10 Concentration −8.9) was 3.042. For the same substance, the “Percent Growth” value (K-562; Log 10 Concentration −8.9) was 101%, the CC50 (K-562; [1]) was > 12.6 µM and the TGI (CCRF-CEM) was >1.26E−05. For the same substance, the “Mean Optical Densities” value (CCRF-CEM; Log 10 Concentration −4.9) was 0.048, the “Percent Growth” value (CCRF-CEM; Log 10 Concentration −4.9) was 0% and the “Mean Optical Densities” value (CCRF-CEM; Log 10 Concentration −5.9) was 0.320. For the same substance, the “Percent Growth” value (CCRF-CEM; Log 10 Concentration −5.9) was 8%, the “Mean Optical Densities” value (CCRF-CEM; Log 10 Concentration −6.9) was 3.051 and the “Percent Growth” value (CCRF-CEM; Log 10 Concentration −6.9) was 87%. For the same substance, the “Mean Optical Densities” value (CCRF-CEM; Log 10 Concentration −7.9) was 3.592, the “Percent Growth” value (CCRF-CEM; Log 10 Concentration −7.9) was 102% and the “Mean Optical Densities” value (CCRF-CEM; Log 10 Concentration −8.9) was 3.601. The “Percent Growth” value (CCRF-CEM; Log 10 Concentration −8.9) was 103% and the CC50 (CCRF-CEM; [1]) was > 12.6 µM.
